The source of these data is patent US20220233708A1, “ANTIBODY-DRUG CONJUGATE, INTERMEDIATE THEREOF, PREPARATION METHOD THEREFOR AND APPLICATION THEREOF” (priority 2019, published 2022).

Holding throughout (type): physicochemical
Data set [1] concerns anti-B7-H3 antibody P2E5. As to the kind of experiment: Coupling of linker-drug conjugates with P2E5. Particulars: coupling with P2E5, highest DAR (excessive coupling). The procedure:
(§1) The anti-B7-H3 antibody P2E5, anti-Claudin18.2 antibody IMAB362, and anti-HER2 antibody Trastuzumab (concentration was 15 mg/mL) were replaced into 50 mM PB/1.0 mM EDTA buffer (pH 7.0) by a G25 desalting column, respectively. 12 equivalents of TECP was added and the mixture was stirred at 37° C. for 2 hours to fully open the disulfide bonds between the antibody chains. Then phosphoric acid was used to adjust the pH of the reduced antibody solution to 6.0, and the temperature of the water bath was lowered to 25° C. for coupling reaction. […] After the reaction was completed, the sample was filtered with a 0.22 μm membrane. Uncoupled small molecules were purified and removed by a tangential flow ultrafiltration system. The buffer was 50 mM PB/1.0 mM EDTA solution (pH 6.0). After purification, sucrose (final concentration was 6%) was added, and the mixture was stored in a refrigerator at −20° C. The UV method was used to measure the absorbance values at 280 nm and 370 nm respectively, and the DAR value was calculated.

Data set [2] has as its system anti-Claudin18.2 antibody IMAB362. As to the kind of experiment: Coupling of linker-drug conjugates with IMAB362. The note with it: coupling with IMAB362, highest DAR (excessive coupling). The procedure: as §1
In data set [3] the test system is anti-HER2 antibody Trastuzumab. Description: Coupling of linker-drug conjugates with Trastuzumab. Particulars: highest DAR (excessive coupling). The procedure: as §1

Starred links: 1 amine or outer side, 2 acyl side, 3 side chain; linkers in the order of their positions; H or OH if unused. Non-standard residues stand in square brackets, D forms with d. Residues, ends and D or L forms follow the SMILES beside them. *: point of attachment. Exatecan = CC[C@@]1(O)C(=O)OCc2c1cc1n(c2=O)Cc2c-1nc1cc(F)c(C)c3c1c2[C@@H](N*)CC3; X2 = CC[C@@]1(O)C(=O)OC(=O)C2=C1C=C1c3nc4cc(F)c(C)c5c4c(c3CN1C2)[C@@H](N*)CC5; Hexanoyl(6-maleimido) = O=C1C=CC(=O)N1CCCCCC(=O)*; X3 = O=C1C=CC(=O)N1CC1CCC(C(=O)*)CC1; X1 = O=C1C=C(Br)C(=O)N1CCCCCC(=O)*; NHCH2OCH2CO = O=C(COCN[*:1])[*:2]

For `CC[C@@]1(O)C(=O)OCc2c1cc1n(c2=O)Cc2c-1nc1cc(F)c(C)c3c1c2[C@@H](NC(=O)COCNC(=O)CNC(=O)[C@H](Cc1ccccc1)NC(=O)CNC(=O)CNC(=O)C1CCC(CN2C(=O)C=CC2=O)CC1)CC3` (stereo partly drawn) [LE01] (X3-GGFG[NHCH2OCH2CO]-Exatecan), the results for the Ratio of aggregates in data set [1], in data set [2] and in data set [3] were 2.1%, 2.0% and 0.2%, respectively. Also, the Whether precipitation entry in data set [1], in data set [2] and in data set [3] was “No” throughout.

Turning to `CCC1(O)C(=O)OC(=O)C2=C1C=C1c3nc4cc(F)c(C)c5c4c(c3CN1C2)C(NC(=O)COCNC(=O)CNC(=O)C(Cc1ccccc1)NC(=O)CNC(=O)CNC(=O)C(CCCCN1C(=O)C=CC1=O)S(=O)(=O)O)CC5` (stereo not drawn) [LE02], the Ratio of aggregates in data set [1] came out at 1.3%; in data set [2] it was 1.8%; in data set [3], 0.2%. The Whether precipitation result in data set [1], in data set [2] and in data set [3] was “No” each time.

`CCC1(O)C(=O)OC(=O)C2=C1C=C1c3nc4cc(F)c(C)c5c4c(c3CN1C2)C(NC(=O)COCNC(=O)CNC(=O)C(Cc1ccccc1)NC(=O)CNC(=O)CNC(=O)C(CN)N1C(=O)C=CC1=O)CC5` (stereo not drawn) [LE03]: the Ratio of aggregates in data set [1] was found to be 1.1%; in data set [2], 1.5%; in data set [3], 0.2%. For the same compound, the Whether precipitation entry in data set [1], in data set [2] and in data set [3] was “No” throughout.

On to `CCC1(O)C(=O)OC(=O)C2=C1C=C1c3nc4cc(F)c(C)c5c4c(c3CN1C2)C(NC(=O)COCNC(=O)CNC(=O)C(Cc1ccccc1)NC(=O)CNC(=O)CNC(=O)CCOCCOCCOCCOCCOCCOCCOCCOCCN1C(=O)C=CC1=O)CC5` (stereo not drawn) [LE04], for which the values for the Ratio of aggregates in data set [1], in data set [2] and in data set [3] were 2.5%, 2.1% and 0.1%, respectively. Besides, the Whether precipitation entry in data set [1], in data set [2] and in data set [3] was “No” throughout.

`CC[C@@]1(O)C(=O)OCc2c1cc1n(c2=O)Cc2c-1nc1cc(F)c(C)c3c1c2[C@@H](NC(=O)COCNC(=O)CNC(=O)[C@H](Cc1ccccc1)NC(=O)CNC(=O)CNC(=O)CCCCCN1C(=O)C=C(Br)C1=O)CC3` [LE05] (X1-GGFG[NHCH2OCH2CO]-Exatecan): the Ratio of aggregates was 1.6% in data set [1], 2.3% in data set [2] and 0.1% in data set [3]. The Whether precipitation result in data set [1], in data set [2] and in data set [3] was “No” each time.

On to `CC[C@@]1(O)C(=O)OC(=O)C2=C1C=C1c3nc4cc(F)c(C)c5c4c(c3CN1C2)[C@@H](NC(=O)COCNC(=O)CNC(=O)[C@H](Cc1ccccc1)NC(=O)CNC(=O)CNC(=O)[C@H](CCCCN)NC(=O)CCCCCN1C(=O)C=CC1=O)CC5` [LE06] ({Hexanoyl(6-maleimido)}-KGGFG[NHCH2OCH2CO]-X2), for which the Ratio of aggregates in data set [1] is listed as 1.2%; in data set [2] it was 1.7%; in data set [3], 0.5%. The Whether precipitation entry in data set [1], in data set [2] and in data set [3] was “No” in each case.

For `CC[C@@]1(O)C(=O)OCc2c1cc1n(c2=O)Cc2c-1nc1cc(F)c(C)c3c1c2[C@@H](NC(=O)COCNC(=O)CNC(=O)[C@H](Cc1ccccc1)NC(=O)CNC(=O)[C@H](CCCCN)NC(=O)CCCCCN1C(=O)C=CC1=O)CC3.O=C(O)C(F)(F)F` [LE07] ({Hexanoyl(6-maleimido)}-KGFG[NHCH2OCH2CO]-Exatecan), the Ratio of aggregates in data set [1] amounted to 1.3%; in data set [2] it was 1.6%; in data set [3] it was 0.5%. In addition, the Whether precipitation result in data set [1], in data set [2] and in data set [3] was “No” throughout.

With `CC[C@@]1(O)C(=O)OC(=O)C2=C1C=C1c3nc4cc(F)c(C)c5c4c(c3CN1C2)[C@@H](NC(=O)COCN(CCN(C)C)C(=O)OCc1ccc(NC(=O)[C@H](C)NC(=O)[C@@H](NC(=O)CCCCCN2C(=O)C=CC2=O)C(C)C)cc1)CC5` [LE13], the Ratio of aggregates is 1.5% in data set [1], 2.3% in data set [2] and 0.1% in data set [3]. Moreover, the Whether precipitation entry in data set [1], in data set [2] and in data set [3] was “No” each time.

On to `CC[C@@]1(O)C(=O)OC(=O)C2=C1C=C1c3nc4cc(F)c(C)c5c4c(c3CN1C2)[C@@H](NC(=O)COCN(CCS(C)(=O)=O)C(=O)OCc1ccc(NC(=O)[C@H](C)NC(=O)[C@@H](NC(=O)C(CCCCN2C(=O)C=CC2=O)S(=O)(=O)O)C(C)C)cc1)CC5` (stereo partly drawn) [LE15], for which the Ratio of aggregates is on record as 2.1% in data set [1], 1.6% in data set [2] and 0.2% in data set [3]. Besides, the Whether precipitation result in data set [1], in data set [2] and in data set [3] was “No” throughout.

Turning to `CC[C@@]1(O)C(=O)OC(=O)C2=C1C=C1c3nc4cc(F)c(C)c5c4c(c3CN1C2)[C@@H](NC(=O)COCN(CCS(C)(=O)=O)C(=O)OCc1ccc(NC(=O)[C@H](C)NC(=O)[C@@H](NC(=O)C2CCC(CN3C(=O)C=CC3=O)CC2)C(C)C)cc1)CC5` (stereo partly drawn) [LE16], the Ratio of aggregates was 2.0% in data set [1], 1.5% in data set [2] and 0.5% in data set [3]. Also, the Whether precipitation result in data set [1], in data set [2] and in data set [3] was “No” in each case.

As to `CC[C@@]1(O)C(=O)OC(=O)C2=C1C=C1c3nc4cc(F)c(C)c5c4c(c3CN1C2)[C@@H](NC(=O)COCN(CCN(C)C)C(=O)OCc1ccc(NC(=O)[C@H](C)NC(=O)[C@@H](NC(=O)C2CCC(CN3C(=O)C=CC3=O)CC2)C(C)C)cc1)CC5` (stereo partly drawn) [LE17], the Ratio of aggregates in data set [1] was 1.5%; in data set [2], 1.6%; in data set [3] it was 0.1%. In addition, the Whether precipitation result in data set [1], in data set [2] and in data set [3] was “No” in each case.

With `CC[C@@]1(O)C(=O)OC(=O)C2=C1C=C1c3nc4cc(F)c(C)c5c4c(c3CN1C2)[C@@H](NC(=O)COCN(CCS(C)(=O)=O)C(=O)OCc1ccc(NC(=O)[C@H](C)NC(=O)[C@@H](NC(=O)CCCn2cc(CNC3CCC(CN4C(=O)C=CC4=O)CC3)nn2)C(C)C)cc1)CC5` (stereo partly drawn) [LE18], the results for the Ratio of aggregates in data set [1], in data set [2] and in data set [3] were 1.6%, 2.1% and 0.1%, respectively. Besides, the Whether precipitation entry in data set [1], in data set [2] and in data set [3] was “No” throughout.

`CC[C@@]1(O)C(=O)OC(=O)C2=C1C=C1c3nc4cc(F)c(C)c5c4c(c3CN1C2)[C@@H](NC(=O)COCN(CCS(C)(=O)=O)C(=O)OCc1ccc(NC(=O)[C@H](C)NC(=O)[C@@H](NC(=O)CCCn2cc(CNC(=O)CCCCCN3C(=O)C=CC3=O)nn2)C(C)C)cc1)CC5` [LE19]: the Ratio of aggregates in data set [1] is listed as 1.2%; in data set [2], 1.4%; in data set [3] it was 0.2%. Further, the Whether precipitation entry in data set [1], in data set [2] and in data set [3] was “No” in each case.

With `CC[C@@]1(OCN(CCS(C)(=O)=O)C(=O)OCc2ccc(NC(=O)[C@H](C)NC(=O)[C@@H](NC(=O)CCCCCN3C(=O)C=CC3=O)C(C)C)cc2)C(=O)OCc2c1cc1n(c2=O)Cc2c-1nc1cc(F)c(C)c3c1c2[C@@H](NC(=O)CO)CC3` [LE21], the values for the Ratio of aggregates in data set [1], in data set [2] and in data set [3] were 2.2%, 2.3% and 0.2%, respectively. The Whether precipitation entry in data set [1], in data set [2] and in data set [3] was “No” each time.

Turning to `CC[C@@]1(OCN(CCN(C)C)C(=O)OCc2ccc(NC(=O)[C@H](C)NC(=O)[C@@H](NC(=O)CCCCCN3C(=O)C=CC3=O)C(C)C)cc2)C(=O)OCc2c1cc1n(c2=O)Cc2c-1nc1cc(F)c(C)c3c1c2[C@@H](NC(=O)CO)CC3` [LE22], the Ratio of aggregates in data set [1] stood at 2.1%; in data set [2], 1.5%; in data set [3], 0.5%. In addition, the Whether precipitation result in data set [1], in data set [2] and in data set [3] was “No” each time.

`CC[C@@]1(O)C(=O)OCc2c1cc1n(c2=O)Cc2c-1nc1cc(F)c(C)c3c1c2[C@@H](NC(=O)COCNC(=O)CNC(=O)[C@H](Cc1ccccc1)NC(=O)[C@H](C)NC(=O)[C@@H](NC(=O)CCCCCN1C(=O)C=CC1=O)C(C)C)CC3` [LE23] ({Hexanoyl(6-maleimido)}-VAFG[NHCH2OCH2CO]-Exatecan): the Ratio of aggregates in data set [1] amounted to 1.9%; in data set [2], 1.6%; in data set [3] it was 0.1%. The Whether precipitation entry in data set [1], in data set [2] and in data set [3] was “No” throughout.
